Experiments:
Plasmodium falciparum [1] = assay: (§1) Growth inhibition of Plasmodium falciparum ring stage in infected erythrocytes by DAPI growth assay; type: functional, organism-based
Plasmodium falciparum [2] = assay: Growth inhibition of Plasmodium falciparum as reduced [3H]hypoxanthine incorporation; type: functional, organism-based
Plasmodium falciparum [3] = assay: as §1; type: functional, organism-based; remark: listed apart in the source
Plasmodium falciparum [4] = assay: microbe, parasite or virus in culture; conditions: 3D7, 72 h
Description: Growth inhibition of Plasmodium falciparum 3D7 ring stage in infected erythrocytes after 72 hrs in DAPI fluorimetry

Plasmodium falciparum [5] = assay: microbe, parasite or virus in culture; conditions: Dd2, 72 h
Description: Growth inhibition of Plasmodium falciparum Dd2 ring stage infected erythrocytes after 72 hrs by DAPI fluorimetry

Plasmodium falciparum [6] = assay: microbe, parasite or virus in culture; conditions: HB3, 72 h
Description: Growth inhibition of Plasmodium falciparum HB3 ring stage in infected erythrocytes after 72 hrs in DAPI fluorimetry

Row | Compound | IC50 (Plasmodium falciparum [1]) | IC50 (Plasmodium falciparum [2]) | IC50 (Plasmodium falciparum [3]) | IC50 (Plasmodium falciparum [4]) | IC50 (Plasmodium falciparum [5]) | IC50 (Plasmodium falciparum [6])
1 | C=C[C@H]1CN2CC[C@H]1C[C@H]2[C@H](O)c1ccnc2ccc(OC)cc12 [QUININE] | 69.2 nM | 62.8 nM | 66.5 nM |  |  | 
2 | C[C@@H]1CC[C@H]2[C@@H](C)C(=O)O[C@@H]3O[C@@]4(C)CC[C@@H]1[C@]32OO4 [ARTEMISININ] | 9.67 nM | 10.1 nM | 10.8 nM | 10.8 nM | 12.3 nM | 9.7 nM
3 | O=C1C(O)=C([C@H]2CC[C@H](c3ccc(Cl)cc3)CC2)C(=O)c2ccccc21 [ATOVAQUONE] | 0.63 nM | 0.61 nM | 0.66 nM |  |  | 
4 | OC(c1cc(C(F)(F)F)nc2c(C(F)(F)F)cccc12)C1CCCCN1 (stereo not drawn) [MEFLOQUINE] |  |  |  | 12.3 nM | 26 nM | 9.63 nM
5 | CCc1nc(N)nc(N)c1-c1ccc(Cl)cc1 [PYRIMETHAMINE] |  |  |  | 10 nM | 44.1 nM | 49.9 nM

— ChEMBL document CHEMBL1142194, “High-throughput Plasmodium falciparum growth assay for malaria drug discovery” (Antimicrob Agents Chemother, 2007)
